What was measured:
[1] = Morphine abstinence model: nitrites/nitrates NOX− in blood plasma, liver and brain; type: in vivo, rats Wistar; conditions: 20.0 mg/kg intramuscularly; for Nitrites in liver: control 0.260 ± 0.023; for Nitrites in brain: Cortex of cerebrum: control 4.63 ± 0.29; for Nitrites in brain: Mesencephalon: control 5.66 ± 0.19; for Nitrites in brain: Hypothalamus: control 6.57 ± 0.50; for Nitrites in blood plasma: control 18.30 ± 2.14
Description: (§1) The experiments were carried out on rats in series of 7 animals on each compound according to the invention. Non-morphinized animal with not administered with compounds according to the invention were used as a control group. […] Then the rats were decapitated, the blood from somnolent arteries was collected in test tubes with solution EDTA as an anticoagulant, centrifuged at 1500 g for 15 minutes at 4° C.
To estimate the intensity of metabolism of nitrogen oxide in rats, quantitative determination of stable metabolites of nitrogen oxide—nitrites and nitrates NOX^− in the blood plasma, supernatanates of the liver and thymus gland, a study was conducted by a spectrometric method, and in the brain supernatanates by a […] method.
The spectrometric method is based the reaction of nitrites with the Griss reagent (a mixture of 2% solution of sulfanilamide and 0.2% N-(1-naphthyl)ethylene diamine. At the first step the nitrite reacts with sulfanilamide with formation of diazonium salt, and then with the second component to form azo dye with an adsorption maximum at 540 nm. For reduction of nitrates into nitrites, a fermentative method was used with bacterial reductase nitrate (Grisham M. B. et al., 1995). The samples of plasma and supernathant of the liver deproteinizated at 100° C. for 5 minutes incubated for 30 minutes at 37° C. in 50.0 mM of HEPES pH 7.4 in the presence of 0.2 unit/ml of Aspergillus reductase nitrate, 5.0 mkM of FAD and 0.1 mM of NAD-Ph. At the end of the reaction lactate dehydrogenase and pyruvate were added for isolation of NAD-Ph interfering with the Griss reaction. Then the Griss reagent was added and after 10-minute incubation the light absorption of the samples was measured at 540 nm. To amount of NOX^− was calculated using sodium nitrate as a standard.
The fluorometric method is based on calculation of the nitrite level by the intensity fluorescence of 2,3-diaminonaphthotriazole, a product of reaction of 2,3-diaminonaphthalene (DAN) and nitrite in an acidic medium (Misko T. R., Schilling R. J., Salvemini D. et al. “A fluorometric assay for the measurement of nitrite of biological samples”. Anal. Biochem., 1993, v. 214, p. 11-16). The brain supernatants deproteinizated at 100° C. were placed in a nitrite regenerating system containing 0.125 unit/ml of nitrate reductases, 25 mkM NADPh and 25 mkM FAD prepared in a 20-mM Tris-HCl buffer with pH 7.6 and incubated for 30 minutes at 37° C. The lactate dehydrogenase/pyruvate system was used for oxidation of the NADPh. Then 316 mkM of the DAN solution in 0.62 M of hydrochloric acids were added and the mixture was incubated for 10 minutes in darkness.
280 mM of NaOH were added for stabilization of the fluorescence of the formed 2,3-diaminonaphthotriazole. The fluorescence intensity was measured in the spectrofluorimeter Hitachi F-3000 at a wavelength of excitation of 365 nm and an emission of 405 nm. The concentration of NOX^− in the brain was calculated by means of a standard solution of sodium nitrate.

[2] = Morphine abstinence model: indicator enzymes ALT, AST, γ-GTP in blood plasma; conditions: 20.0 mg/kg intramuscularly three times a day; for γ-GTP in blood plasma, Ci: control 6.261 ± 1.80; for ALT in blood plasma, Ci: control 106.76 ± 111.35; for AST in blood plasma, Ci: control 179.881 ± 11.94
Description: as §1
To estimate possible hepatoprotective action of the compounds according to the invention under conditions of development of an oxidizing stress in the liver cells, effect of these compounds on the most important biochemical blood indexes, in particular, on the content in blood plasma of indicator enzyme of aspartateaminotransferase (AST), alanineaminotransferase (ALT), γ-glutamiletranspeptidase (γ-GTP) was investigated. The content of enzymes was estimated by their catalyzing activity in blood plasma.
The activity of AST, ALT and γ-GTP was determined by means of diagnostic sets DiaSys, Germany.

[3] = Chronic toxicity of suppositories: indexes of urine; type: in vivo, rats; conditions: rats, suppositories rectal, 1 month after administration
Description: The experiments were conducted on inbred rats.

[4] = system: synthase of nitrogen oxide (NOC); assay: Morphine abstinence model: activity of synthase of nitrogen oxide (NOC), radiometric [3H]L-citrulline method; type: in vivo, rats Wistar; conditions: 20.0 mg/kg intramuscularly; for Activity of NOC: Mesencephalon: control 2.18 ± 0.09; for Activity of NOC: Hypothalamus: control 5.37 ± 0.20

For `O=c1[nH][nH]c(=O)c2c(Br)ncnc12.[K]` [Compound 37, potassium salt of 4-bromine-pyrimido[4,5-D]-6H-pyridazine-5,8-dione], the Nitrites in liver ([1]; Control + Compound) was 0.262 ± 0.018 nmol/mg of protein, the “Nitrites in brain: Cortex of cerebrum” value ([1]; Control + Compound) was 4.36 ± 0.24 nmol/mg of protein and the “Nitrites in brain: Mesencephalon” value ([1]; Control + Compound) was 6.84 ± 0.56 nmol/mg of protein. The “Nitrites in brain: Hypothalamus” value ([1]; Control + Compound) was 6.79 ± 0.92 nmol/mg of protein, the “Nitrites in blood plasma” value ([1]; Control + Compound) was 16.13 ± 1.80 mkmol/ml and the Nitrites in liver ([1]; Control + Morphine + compound) was 0.274 ± 0.01 nmol/mg of protein. For the same molecule, the “Nitrites in brain: Cortex of cerebrum” value ([1]; Control + Morphine + compound) was 4.77 ± 0.28 nmol/mg of protein, the “Nitrites in brain: Mesencephalon” value ([1]; Control + Morphine + compound) was 5.63 ± 0.37 nmol/mg of protein and the “Nitrites in brain: Hypothalamus” value ([1]; Control + Morphine + compound) was 6.52 ± 0.83 nmol/mg of protein. For the same molecule, the “Nitrites in blood plasma” value ([1]; Control + Morphine + compound) was 15.33 ± 0.87 mkmol/ml, the “γ-GTP in blood plasma, Ci” value ([2]; Control + compound) was 8.14 ± 2.64 mE/l and the “ALT in blood plasma, Ci” value ([2]; Control + compound) was 113.84 ± 2.0 mE/l. For the same molecule, the “AST in blood plasma, Ci” value ([2]; Control + compound) was 174.82 ± 4.91 mE/l, the “γ-GTP in blood plasma, Ci” value ([2]; control + Morphine + Compound) was 10.32 ± 2.67 mE/l and the “ALT in blood plasma, Ci” value ([2]; control + Morphine + Compound) was 120.84 ± 5.20 mE/l. The “AST in blood plasma, Ci” value ([2]; control + Morphine + Compound) was 193.58 ± 14.18 mE/l, the “Bilirubin (urine)” value ([3]; dose 50 mg/kg) was <5 Mkmol/l and the “Glucose (urine)” value ([3]; dose 50 mg/kg) was <5 mmol/L. For the same molecule, the “Ketone bodies (urine)” value ([3]; dose 50 mg/kg) was <1 mmol/L, the “Potassium (urine)” value ([3]; dose 50 mg/kg) was 6.12 ± 1.4 g/L and the “Protein (urine)” value ([3]; dose 50 mg/kg) was 0.70 ± 0.19 g/L. The “Sodium (urine)” value ([3]; dose 50 mg/kg) was 1.4 ± 0.2 g/L, the “Urea (urine)” value ([3]; dose 50 mg/kg) was 427 ± 137 mmol/L and the “Urobilinogen (urine)” value ([3]; dose 50 mg/kg) was <15 Mkmol/l. The “pH (urine)” value ([3]; dose 50 mg/kg) was 6.4 ± 0.4, the “Bilirubin (urine)” value ([3]; dose 500 mg/kg) was <5 Mkmol/l and the “Glucose (urine)” value ([3]; dose 500 mg/kg) was <5 mmol/L. For the same molecule, the “Ketone bodies (urine)” value ([3]; dose 500 mg/kg) was <1 mmol/L, the “Potassium (urine)” value ([3]; dose 500 mg/kg) was 6.44 ± 1.3 g/L and the “Protein (urine)” value ([3]; dose 500 mg/kg) was 0.72 ± 0.14 g/L. The “Sodium (urine)” value ([3]; dose 500 mg/kg) was 0.88 ± 0.4 g/L, the “Urea (urine)” value ([3]; dose 500 mg/kg) was 489 ± 152 mmol/L and the “Urobilinogen (urine)” value ([3]; dose 500 mg/kg) was <15 Mkmol/l. For the same molecule, the “pH (urine)” value ([3]; dose 500 mg/kg) was 6.2 ± 0.3, the “Activity of NOC: Mesencephalon” value ([4]; Control + Compound) was 2.62 ± 0.27 pmol/min/mg of protein and the “Activity of NOC: Hypothalamus” value ([4]; Control + Compound) was 5.61 ± 0.22 pmol/min/mg of protein. The “Activity of NOC: Mesencephalon” value ([4]; Control + Morphine + compound) was 1.85 ± 0.30 pmol/min/mg of protein and the “Activity of NOC: Hypothalamus” value ([4]; Control + Morphine + compound) was 5.59 ± 0.22 pmol/min/mg of protein.
